In PubChem BioAssay (NCI):
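All cell lines were grown in 96-well plates and treated with compound for 48 hours. GI50 is the concentration that inhibits growth by half. The concentration for full growth arrest is given as TGI.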

Legend:
Experiment in all cases: NCI-60 cell line screen, 48 h
[1] = tested on: 786-0 renal
[2] = tested on: A498 renal
[3] = tested on: A549 NSCLC
[4] = tested on: ACHN renal
[5] = tested on: BT-549 breast
[6] = tested on: CAKI-1 renal
[7] = tested on: CCRF-CEM leukemia
[8] = tested on: COLO 205 colon
[9] = tested on: DU-145 prostate
[10] = tested on: EKVX NSCLC
[11] = tested on: HCC-2998 colon
[12] = tested on: HCT-116 colon
[13] = tested on: HCT-15 colon
[14] = tested on: HL-60(TB) leukemia
[15] = tested on: HOP-62 NSCLC
[16] = tested on: HOP-92 NSCLC
[17] = tested on: HS 578T breast
[18] = tested on: HT29 colon
[19] = tested on: IGROV1 ovarian
[20] = tested on: K-562 leukemia
[21] = tested on: KM12 colon
[22] = tested on: LOX IMVI melanoma
[23] = tested on: M14 melanoma
[24] = tested on: MALME-3M melanoma
[25] = tested on: MCF7 breast
[26] = tested on: MDA-MB-231 breast
[27] = tested on: MDA-MB-435
[28] = tested on: MDA-MB-468 breast
[29] = tested on: MOLT-4 leukemia
[30] = tested on: NCI-H226 lung
[31] = tested on: NCI-H23 lung
[32] = tested on: NCI-H460 lung
[33] = tested on: NCI-H522 lung
[34] = tested on: NCI/ADR-RES ovarian
[35] = tested on: OVCAR-3 ovarian
[36] = tested on: OVCAR-4 ovarian
[37] = tested on: OVCAR-5 ovarian
[38] = tested on: OVCAR-8 ovarian
[39] = tested on: PC-3 prostate
[40] = tested on: RPMI-8226 leukemia
[41] = tested on: RXF 393 renal
[42] = tested on: SF-268 CNS
[43] = tested on: SF-295 CNS
[44] = tested on: SF-539 CNS
[45] = tested on: SK-MEL-2 melanoma
[46] = tested on: SK-MEL-28 melanoma
[47] = tested on: SK-MEL-5 melanoma
[48] = tested on: SK-OV-3 ovarian
[49] = tested on: SN12C renal
[50] = tested on: SNB-19 CNS
[51] = tested on: SNB-75 CNS
[52] = tested on: SR leukemia
[53] = tested on: SW-620 colon
[54] = tested on: T-47D breast
[55] = tested on: TK-10 renal
[56] = tested on: U251 CNS
[57] = tested on: UACC-257 melanoma
[58] = tested on: UACC-62 melanoma
[59] = tested on: UO-31 renal

`Cc1cc2nc3c4ccccc4n(CCNCCN(C)C)c3nc2cc1C` showed a GI50 [1] of 8.4 µM, a TGI [1] of 22.2 µM and a GI50 [2] of 14.5 µM. The TGI [2] was 29.2 µM, the GI50 [3] was 4.67 µM and the TGI [3] was 19.5 µM. The GI50 [4] was 4.31 µM, the TGI [4] was 17 µM and the GI50 [5] was 14.1 µM. For the same molecule, the TGI [5] was 28 µM, the GI50 [6] was 10.8 µM and the TGI [6] was 22.7 µM. For the same molecule, the GI50 [7] was 11.5 µM, the TGI [7] was 31.7 µM and the GI50 [8] was 3.98 µM. The TGI [8] was 17.3 µM, the GI50 [9] was 5.69 µM and the TGI [9] was 18.1 µM. It also gave a GI50 [10] of 11.1 µM, a TGI [10] of 24.2 µM and a GI50 [11] of 5.47 µM. The TGI [11] was 19.5 µM, the GI50 [12] was 5.35 µM and the TGI [12] was 18.8 µM. The GI50 [13] was 5.23 µM, the TGI [13] was 18.3 µM and the GI50 [14] was 5.51 µM. The TGI [14] was 20.3 µM, the GI50 [15] was 4.98 µM and the TGI [15] was 19.8 µM. It also gave a GI50 [16] of 3.45 µM, a TGI [16] of 22.5 µM and a GI50 [17] of 9.6 µM. It also gave a TGI [17] of 30.7 µM, a GI50 [18] of 3.84 µM and a TGI [18] of 15.5 µM. It also gave a GI50 [19] of 4.81 µM, a TGI [19] of 18.5 µM and a GI50 [20] of 3.35 µM. For the same molecule, the TGI [20] was 13.7 µM, the GI50 [21] was 13.2 µM and the TGI [21] was 26.9 µM. The GI50 [22] was 3.07 µM, the TGI [22] was 15.3 µM and the GI50 [23] was 7.43 µM. It also gave a TGI [23] of 23.3 µM, a GI50 [24] of 9.35 µM and a TGI [24] of 23.2 µM. For the same molecule, the GI50 [25] was 3.27 µM, the TGI [25] was 14.6 µM and the GI50 [26] was 6.88 µM. The TGI [26] was 21.1 µM, the GI50 [27] was 5.23 µM and the TGI [27] was 17.8 µM. It also gave a GI50 [28] of 7.78 µM, a TGI [28] of 21.3 µM and a GI50 [29] of 4.09 µM. For the same molecule, the TGI [29] was 15.6 µM, the GI50 [30] was 6.13 µM and the TGI [30] was 26.5 µM. For the same molecule, the GI50 [31] was 11.5 µM, the TGI [31] was 26.6 µM and the GI50 [32] was 3.61 µM. The TGI [32] was 13.6 µM, the GI50 [33] was 8.38 µM and the TGI [33] was 23.5 µM. The GI50 [34] was 8.46 µM, the TGI [34] was 29 µM and the GI50 [35] was 7.35 µM. The TGI [35] was 20.5 µM, the GI50 [36] was 4.89 µM and the TGI [36] was 19.1 µM. For the same molecule, the GI50 [37] was 6.68 µM, the TGI [37] was 19.5 µM and the GI50 [38] was 4.66 µM. It also gave a TGI [38] of 20.3 µM, a GI50 [39] of 5.23 µM and a TGI [39] of 23.2 µM. It also gave a GI50 [40] of 3.36 µM, a TGI [40] of 18.3 µM and a GI50 [41] of 5.17 µM. For the same molecule, the TGI [41] was 18.2 µM, the GI50 [42] was 9.33 µM and the TGI [42] was 23.9 µM. It also gave a GI50 [43] of 6.48 µM, a TGI [43] of 19.6 µM and a GI50 [44] of 4.96 µM. It also gave a TGI [44] of 17.4 µM, a GI50 [45] of 12.6 µM and a TGI [45] of 27.6 µM. The GI50 [46] was 7.61 µM, the TGI [46] was 20.1 µM and the GI50 [47] was 12.6 µM. It also gave a TGI [47] of 25.6 µM, a GI50 [48] of 11.7 µM and a TGI [48] of 29.4 µM. The GI50 [49] was 4.63 µM, the TGI [49] was 18.5 µM and the GI50 [50] was 7.26 µM. The TGI [50] was 20 µM, the GI50 [51] was 3.33 µM and the TGI [51] was 20.3 µM. The GI50 [52] was 2.01 µM, the TGI [52] was 5.92 µM and the GI50 [53] was 3.87 µM. It also gave a TGI [53] of 16.2 µM, a GI50 [54] of 12.2 µM and a TGI [54] of 31.2 µM. The GI50 [55] was 8.06 µM, the TGI [55] was 20.8 µM and the GI50 [56] was 6.09 µM. For the same molecule, the TGI [56] was 19.7 µM, the GI50 [57] was 1.98 µM and the TGI [57] was 5.35 µM. For the same molecule, the GI50 [58] was 6.63 µM, the TGI [58] was 19.8 µM and the GI50 [59] was 1.49 µM. The TGI [59] was 14.6 µM.
